Tests used:
Assay in all cases: relative viability (nuclei count vs DMSO), 5 days (fraction); higher = more cells survive
CAL-12T = system: CAL-12T
Outline: (§1)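 Each reported value is a median over duplicate plates. It expresses relative viability: treated-well nuclei count divided by vehicle-well nuclei count. Lung cancer cell lines in 1536-well plates were dosed by pin tool a day after seeding, alone with one drug or with a fixed anchor-drug dose plus five library-drug doses (not always all listed) in √10 steps, and nuclei were counted after 5 days.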

ChaGo-K-1 = system: ChaGo-K-1
Outline: as §1

HCC-366 = system: HCC-366
Outline: as §1

HCC-78 = system: HCC-78
Outline: as §1

LC-2-ad = system: LC-2-ad
Outline: as §1

LOU-NH91 = system: LOU-NH91
Outline: as §1

LU99A = system: LU99A
Outline: as §1

NCI-H1395 = system: NCI-H1395
Outline: as §1

NCI-H1651 = system: NCI-H1651
Outline: as §1

NCI-H1755 = system: NCI-H1755
Outline: as §1

NCI-H1793 = system: NCI-H1793
Outline: as §1

NCI-H1944 = system: NCI-H1944
Outline: as §1

NCI-H2087 = system: NCI-H2087
Outline: as §1

NCI-H2170 = system: NCI-H2170
Outline: as §1

NCI-H2228 = system: NCI-H2228
Outline: as §1

NCI-H2405 = system: NCI-H2405
Outline: as §1

NCI-H3122 = system: NCI-H3122
Outline: as §1

NCI-H460 = system: NCI-H460
Outline: as §1

PC-3 [JPC-3] = system: PC-3 [JPC-3]
Outline: as §1

RERF-LC-KJ = system: RERF-LC-KJ
Outline: as §1

UMC-11 = system: UMC-11
Outline: as §1

CC(=O)O[C@@]12CO[C@@H]1C[C@H](O)[C@@]1(C)C(=O)[C@H](O)C3=C(C)[C@@H](OC(=O)[C@H](O)[C@@H](NC(=O)OC(C)(C)C)c4ccccc4)C[C@@](O)([C@@H](OC(=O)c4ccccc4)[C@H]21)C3(C)C [Docetaxel] + CC(=O)Nc1cccc(-n2c(=O)n(C3CC3)c(=O)c3c(Nc4ccc(I)cc4F)n(C)c(=O)c(C)c32)c1 [Trametinib] (partner 0.02 µM)
relative viability (CAL-12T; first compound 0.0002 µM): 0.294
relative viability (CAL-12T; first compound 0.000632 µM): 0.267
relative viability (CAL-12T; first compound 0.002 µM): 0.229
relative viability (CAL-12T; first compound 0.006325 µM): 0.15
relative viability (CAL-12T; first compound 0.02 µM): 0.119
relative viability (ChaGo-K-1; first compound 0.0002 µM): 0.871
relative viability (ChaGo-K-1; first compound 0.000632 µM): 0.815
relative viability (ChaGo-K-1; first compound 0.002 µM): 0.443
relative viability (ChaGo-K-1; first compound 0.006325 µM): 0.323
relative viability (ChaGo-K-1; first compound 0.02 µM): 0.157
relative viability (HCC-366; first compound 0.0002 µM): 0.303
relative viability (HCC-366; first compound 0.000632 µM): 0.102
relative viability (HCC-366; first compound 0.002 µM): 0.0555
relative viability (HCC-366; first compound 0.006325 µM): 0.0799
relative viability (HCC-366; first compound 0.02 µM): 0.0179
relative viability (HCC-78; first compound 0.0002 µM): 0.751
relative viability (HCC-78; first compound 0.000632 µM): 0.73
relative viability (HCC-78; first compound 0.002 µM): 0.502
relative viability (HCC-78; first compound 0.006325 µM): 0.446
relative viability (HCC-78; first compound 0.02 µM): 0.371
relative viability (LC-2-ad; first compound 0.0002 µM): 0.886
relative viability (LC-2-ad; first compound 0.000632 µM): 0.737
relative viability (LC-2-ad; first compound 0.002 µM): 0.345
relative viability (LC-2-ad; first compound 0.006325 µM): 0.297
relative viability (LC-2-ad; first compound 0.02 µM): 0.226
relative viability (LOU-NH91; first compound 0.0002 µM): 0.766
relative viability (LOU-NH91; first compound 0.000632 µM): 0.783
relative viability (LOU-NH91; first compound 0.002 µM): 0.607
relative viability (LOU-NH91; first compound 0.006325 µM): 0.449
relative viability (LOU-NH91; first compound 0.02 µM): 0.354
relative viability (LU99A; first compound 0.0002 µM): 0.53
relative viability (LU99A; first compound 0.000632 µM): 0.561
relative viability (LU99A; first compound 0.002 µM): 0.346
relative viability (LU99A; first compound 0.006325 µM): 0.3
relative viability (NCI-H1395; first compound 0.0002 µM): 1.04
relative viability (NCI-H1395; first compound 0.000632 µM): 1.06
relative viability (NCI-H1395; first compound 0.002 µM): 0.907
relative viability (NCI-H1395; first compound 0.006325 µM): 0.467
relative viability (NCI-H1395; first compound 0.02 µM): 0.297
relative viability (NCI-H1651; first compound 0.0002 µM): 0.843
relative viability (NCI-H1651; first compound 0.000632 µM): 0.83
relative viability (NCI-H1651; first compound 0.002 µM): 0.586
relative viability (NCI-H1651; first compound 0.006325 µM): 0.268
relative viability (NCI-H1755; first compound 0.0002 µM): 0.766
relative viability (NCI-H1755; first compound 0.000632 µM): 0.743
relative viability (NCI-H1755; first compound 0.002 µM): 0.555
relative viability (NCI-H1755; first compound 0.006325 µM): 0.415
relative viability (NCI-H1755; first compound 0.02 µM): 0.381
relative viability (NCI-H1793; first compound 0.0002 µM): 0.378
relative viability (NCI-H1793; first compound 0.000632 µM): 0.433
relative viability (NCI-H1793; first compound 0.002 µM): 0.384
relative viability (NCI-H1793; first compound 0.006325 µM): 0.316
relative viability (NCI-H1793; first compound 0.02 µM): 0.272
relative viability (NCI-H1944; first compound 0.0002 µM): 0.387
relative viability (NCI-H1944; first compound 0.000632 µM): 0.371
relative viability (NCI-H1944; first compound 0.002 µM): 0.294
relative viability (NCI-H1944; first compound 0.006325 µM): 0.241
relative viability (NCI-H1944; first compound 0.02 µM): 0.118
relative viability (NCI-H2087; first compound 0.0002 µM): 0.159
relative viability (NCI-H2087; first compound 0.000632 µM): 0.208
relative viability (NCI-H2087; first compound 0.002 µM): 0.181
relative viability (NCI-H2087; first compound 0.006325 µM): 0.118
relative viability (NCI-H2087; first compound 0.02 µM): 0.0893
relative viability (NCI-H2170; first compound 0.0002 µM): 0.887
relative viability (NCI-H2170; first compound 0.000632 µM): 0.848
relative viability (NCI-H2170; first compound 0.002 µM): 0.746
relative viability (NCI-H2170; first compound 0.006325 µM): 0.222
relative viability (NCI-H2170; first compound 0.02 µM): 0.167
relative viability (NCI-H2228; first compound 0.0002 µM): 0.529
relative viability (NCI-H2228; first compound 0.000632 µM): 0.233
relative viability (NCI-H2228; first compound 0.002 µM): 0.202
relative viability (NCI-H2228; first compound 0.006325 µM): 0.188
relative viability (NCI-H2228; first compound 0.02 µM): 0.121
relative viability (NCI-H2405; first compound 0.0002 µM): 0.597
relative viability (NCI-H2405; first compound 0.000632 µM): 0.618
relative viability (NCI-H2405; first compound 0.002 µM): 0.531
relative viability (NCI-H2405; first compound 0.006325 µM): 0.456
relative viability (NCI-H2405; first compound 0.02 µM): 0.266
relative viability (NCI-H3122; first compound 0.0002 µM): 0.219
relative viability (NCI-H3122; first compound 0.000632 µM): 0.215
relative viability (NCI-H3122; first compound 0.002 µM): 0.194
relative viability (NCI-H3122; first compound 0.006325 µM): 0.194
relative viability (NCI-H3122; first compound 0.02 µM): 0.128
relative viability (NCI-H460; first compound 0.0002 µM): 0.103
relative viability (NCI-H460; first compound 0.000632 µM): 0.0804
relative viability (NCI-H460; first compound 0.002 µM): 0.0715
relative viability (NCI-H460; first compound 0.006325 µM): 0.0192
relative viability (NCI-H460; first compound 0.02 µM): 0.0118
relative viability (PC-3 [JPC-3]; first compound 0.0002 µM): 0.684
relative viability (PC-3 [JPC-3]; first compound 0.000632 µM): 0.701
relative viability (PC-3 [JPC-3]; first compound 0.002 µM): 0.604
relative viability (PC-3 [JPC-3]; first compound 0.006325 µM): 0.431
relative viability (PC-3 [JPC-3]; first compound 0.02 µM): 0.279
relative viability (RERF-LC-KJ; first compound 0.0002 µM): 0.767
relative viability (RERF-LC-KJ; first compound 0.000632 µM): 0.816
relative viability (RERF-LC-KJ; first compound 0.002 µM): 0.39
relative viability (RERF-LC-KJ; first compound 0.006325 µM): 0.217
relative viability (RERF-LC-KJ; first compound 0.02 µM): 0.142
relative viability (UMC-11; first compound 0.0002 µM): 0.62
relative viability (UMC-11; first compound 0.000632 µM): 0.788
relative viability (UMC-11; first compound 0.002 µM): 0.358
relative viability (UMC-11; first compound 0.006325 µM): 0.216
relative viability (UMC-11; first compound 0.02 µM): 0.147

Reference: the supplement of paper PMC10307832
